From patent US20040009170A1, “Alpha-melanocyte stimulating hormone peptides protection in organ transplantation” (priority 2002, published 2004)

Legend:
[1] = system: donor cardiac grafts (Brown Norway) transplanted into recipient (Lewis) rats; assay: Heterotopic heart transplantation in rats: allograft survival; format: in vivo, rat
From the text: Adult inbred Brown Norway (donor) and Lewis (recipient) male rats, weighing 200-300 g were used in this study (Charles River, Calco, Italy). Animals were maintained at the animal care facilities of the Department of Hepatology, Ospedale Maggiore di Milano, Italy, under standard temperature, humidity, and time-regulated light conditions. Water and food were provided ad libitum. All animals received care in compliance with the Principles of Laboratory Animal Care, formulated by the National Society of Medical Research, and the Guide for the Care and Use of Laboratory Animals, prepared by the National Academy of Sciences and published by the National Institutes of Health (NIH Publication No. 8623, revised 1985).
Before transplantation, animals were anesthetized with an intraperitoneal injection of 125-mg/kg ketamine. During anesthesia, heart rate, ventilation rate, and temperature were closely monitored. Donor cardiac grafts (Brown Norway) were transplanted into the abdominal cavity of the recipient (Lewis) rats using the technique described by Ono and Lindsey. […] Graft function was monitored by palpation through the abdominal wall twice daily. […]
Statistical analysis was performed using SigmaStat statistical software (Jandel Scientific GmbH, Germany). Values are expressed as mean±SEM. […] Difference in median graft survival time was evaluated using the Mann-Whitney Rank Sum Test. […]

[2] = system: heart grafts (Brown Norway into Lewis rats); assay: Histopathological evaluation and ED1 immunohistochemistry of heart grafts; format: in vivo, rat
Protocol: Experiments were performed to determine whether NDP-α-MSH treatment prolongs allograft survival. For this purpose, NDP-α-MSH or saline was administered from the time of transplantation until spontaneous rejection. In such experiments (n=7), rats were sacrificed when there was loss of palpable contractile activity of the graft. Studies were performed focusing on the influence of NDP-α-MSH on graft histopathology and transcripts involved in inflammation and rejection. For these studies, rats (n=6) were sacrificed 1 or 4 days after transplantation. NDP-α-MSH or saline was administered from day 0 until the sacrifice.
Heart grafts, removed from rats on day 1, 4, or at the time of rejection, were sectioned coronally. Two sections were snap-frozen in liquid nitrogen and stored at −80° C. for RNA extraction and RT-PCR assays. One section was fixed in 10% buffered formalin and paraffin-embedded for light microscopy examination.
Histopathological evaluation was then performed. Three μm coronal sections of heart grafts were stained with hematoxylin and eosin. Histopathological lesions were scored by two blinded observers using a 5-point scale according to combined assessments of edema (absent, perivascular/mild interstitial, subendocardial, diffuse interstitial, massive); inflammatory cell infiltration (absent, perivascular, subendocardial, diffuse interstitial, massive), and myocytolysis (absent, focal, massive): 0=minimum damage, 1+=mild damage, 2+=moderate damage, 3+=severe damage, and 4+=maximum damage.
Analysis of graft infiltrating monocytes/macrophages was performed through immunohistochemical detection of ED1-positive cells. Sections were stained using the peroxidase-antiperoxidase (PAP) technique, after incubation with mouse anti-rat ED 1 or control antibody (Santa Cruz Biotech, Santa Cruz, Calif., USA). Slides were counterstained with hematoxylin and eosin.
Statistical analysis was performed using SigmaStat statistical software (Jandel Scientific GmbH, Germany). Values are expressed as mean±SEM. Unpaired Student's t test was used to compare differences between values in histological scores. Difference in median graft survival time was evaluated using the Mann-Whitney Rank Sum Test. A probability value<0.05 was considered statistically significant.

[3] = Plasma nitrite (NO2-) determination after heart transplantation (Griess); format: in vivo, rat; details: all intervals (day 1, day 4, rejection)
Protocol: Plasma was separated by centrifugation, aliquoted, and stored at −80° C.
Nitric oxide determinations were performed. Specifically, plasma nitrite concentration was determined at times of sacrifice as a measure of nitric oxide release. Nitrates (NO3^−) were converted into nitrites (NO2^−) by treatment of serum with nitrate reductase (Boehringer Mannheim Italia SpA, Milan, Italy). After enzymatic reduction, samples were mixed with equal amounts of Griess reagent (sulfanilamide 1%, napthlethylenediamide 0.1% in phosphoric acid 0.25%). Samples were incubated at room temperature for 10 min and absorbency was measured at 540 nm using a microplate automatic reader.

[4] = depending upon the assay employed; cited from earlier work
proteolytic enzymes = details: cited from earlier work
[5] = 4 days after transplantation, vs untreated
[6] = day 1 after transplantation, vs untreated

Nle^4DPhe^7-α-MSH [NDP-α-MSH]
Median graft survival ([1]; 100 μg i.p. every 12 h from 1 h before transplantation until rejection, no immunosuppression, untreated 6 days, p<0.001): 10 days
Graft survival time, range ([1]; 100 μg i.p. every 12 h until rejection, untreated range 6-8): 9 to 11 days
ED1-positive cells infiltrating the graft [2, 5]: fewer and dispersed
Inflammation and edema [2, 5]: milder and mostly restricted to the subendocardial region
Histopathological score of heart grafts ([2]; 4 days after transplantation, untreated 10.8±0.80, p<0.01): 7.0±0.64
Histology of rejected hearts, treated vs untreated ([2]; at time of rejection): no significant differences
Inflammatory cell infiltration [2, 6]: much less
Intragraft edema [2, 6]: milder and generally restricted to the perivascular spaces
Histopathological score of heart grafts ([2]; day 1 after transplantation, mean±SEM, untreated 8.7±0.25, p<0.001): 3.0±0.90
Increases in plasma NO2- concentration vs untreated [3]: significantly lower
Activity relative to the natural molecule [4]: 10- to 1000 times
Inactivation by proteolytic enzymes (proteolytic enzymes): resistant
